Where only a bound is given, the exact number is not on record here.

For orientation: EC50 means the concentration at which the effect is half-maximal.

The subject of this experiment is whole cells (NMuLi, C2Cl2, and L6 cells, isolated cardiomyocytes, human primary fibroblasts). Briefly: Oxygen consumption rate (OCR) in whole cells, Seahorse XF-24 Flux Analyzer. The conditions noted are these: cell type for Table 1 not stated, read-out: OCR Activity (increase in OCR), binned EC50. The experiment is classed as cell-based. How it is done: Biological activities of the compounds synthesized is determined by determining increase in oxygen consumption rate (OCR).
Oxygen consumption rate (OCR) in whole cells is measured in general accordance with the method of Kenwood B M et al. (Mol. Met. (2014) 3: 114-123).
OCR is measured using a Seahorse XF-24 Flux Analyzer (Seahorse Biosciences, North Billerica, Mass.). NMuLi, C2Cl2, and L6 cells are seeded in a Seahorse 24-well tissue culture plate at a density of 3.5×10^4 cells/well, isolated cardiomyocytes at a density of 4×10^4 cells/well, and human primary fibroblasts at a density of 1.1×10^4 cells/well. The cells are then allowed to adhere for 24 h. Prior to the assay, the media is changed to unbuffered DMEM containing pyruvate and glutamine (Gibco #12800-017, pH=7.4 at 37° C.) and the cells are equilibrated for 30 mins at 37° C. Compounds are injected during the assay and OCR is measured using 2 min measurement periods.
2-3 wells are used per condition and averaged over three plates (n=6-9). Statistical significance is determined by two-way ANOVA with Bonfenoni's posttest.
Activities are reported as binned EC50 values: A=5 μM or less; B=>5 to 20 μM; C=over 20 μM; NA=no effect.
For the compound `COc1nc2[nH]c(C(F)(F)F)nc2nc1Nc1ccc(C(C)(C)C)cc1F` [Compound 2-33, 6-methoxy-N-(2-fluoro-4-(tert-butyl)phenyl)-2-(trifluoromethyl)-1H-imidazo[4,5-b]pyrazin-5-amine], the EC50 was in the range of 5 to 20 µM. For the compound `COc1nc2[nH]c(C(F)(F)F)nc2nc1Oc1ccc(C(F)(F)F)cc1` [Compound 2-40, 6-methoxy-2-(trifluoromethyl)-5-(4-(trifluoromethyl)phenoxy)-1H-imidazo[4,5-b]pyrazine], the EC50 is at most 5 µM. The figure for `FC(F)(F)c1ccc(Nc2nc3[nH]c(C(F)(F)F)nc3nc2Oc2ccc(C(F)(F)F)cc2)cc1` [Compound 2-47, 2-(trifluoromethyl)-5-(4-(trifluoromethyl)phenoxy)-N-(4-(trifluoromethyl)phenyl)-1H-imidazo[4,5-b]pyrazin-6-amine] is at most 5 µM; for `FC(F)(F)COc1nc2[nH]c(C(F)(F)F)nc2nc1Nc1ccc(OC(F)(F)F)cc1` [Compound 2-36, 6-(2,2,2-trifluoroethoxy)-N-(4-(trifluoromethoxy)phenyl)-2-(trifluoromethyl)-1H-imidazo[4,5-b]pyrazin-5-amine] it is at most 5 µM. The figure for `CC(C)Oc1nc2nc(C(F)(F)F)[nH]c2nc1Nc1ccc(C(F)(F)F)cc1` [Compound 2-45, 5-isopropoxy-2-(trifluoromethyl)-N-(4-(trifluoromethyl)phenyl)-1H-imidazo[4,5-b]pyrazin-6-amine] is over 20 µM; for `COc1nc2[nH]c(C(F)(F)F)nc2nc1Nc1cccc(OC(F)(F)F)c1` [Compound 2-4, 6-methoxy-N-(3-(trifluoromethoxy)phenyl)-2-(trifluoromethyl)-1H-imidazo[4,5-b]pyrazin-5-amine] it is 5 to 20 µM; for `COc1nc2[nH]c(C(F)(F)F)nc2nc1Nc1ccc(OC(F)(F)F)cc1` [Compound 2-1, 6-methoxy-N-(4-(trifluoromethoxy)phenyl)-2-(trifluoromethyl)-1H-imidazo[4,5-b]pyrazin-5-amine] it is over 20 µM. The figure for `Oc1nc2nc(-c3cccc(F)c3)oc2nc1Nc1cc(C(F)(F)F)cc(C(F)(F)F)c1` [Compound 4-5, 6-((3,5-bis(trifluoromethyl)phenyl)amino)-2-(3-fluorophenyl)oxazolo[4,5-b]pyrazin-5-ol] is 5 to 20 µM; for `CCCCc1ccc(Nc2nc3nc(C(F)(F)F)[nH]c3nc2OC)cc1` [Compound 2-2, 6-methoxy-N-(4-(N-butyl)phenyl)-2-(trifluoromethyl)-1H-imidazo[4,5-b]pyrazin-5-amine] it is 5 to 20 µM; for `COc1nc2nc(C(F)(F)F)[nH]c2cc1Nc1ccc(OC(F)(F)F)cc1F` [Compound 2-66, N-(2-fluoro-4-(trifluoromethoxy)phenyl)-5-methoxy-2-(trifluoromethyl)-1H-imidazo[4,5-b]pyridin-6-amine] it is at most 5 µM. In the case of `COc1nc2[nH]c(C(F)(F)F)nc2nc1Nc1cc(F)cc(F)c1` [Compound 2-15, 6-methoxy-N-(3,5-difluorophenyl)-2-(trifluoromethyl)-1H-imidazo[4,5-b]pyrazin-5-amine], the EC50 was over 20 µM. The figure for `COc1nc2[nH]c(C(F)(F)F)nc2cc1Nc1cccc(F)c1` [Compound 2-67, N-(3-fluorophenyl)-5-methoxy-2-(trifluoromethyl)-3H-imidazo[4,5-b]pyridin-6-amine] is 5 to 20 µM; for `COc1nc2nc(C(F)(F)F)[nH]c2cc1Nc1cccc(OC(F)(F)F)c1` [Compound 2-63, 5-methoxy-N-(3-(trifluoromethoxy)phenyl)-2-(trifluoromethyl)-1H-imidazo[4,5-b]pyridin-6-amine] it is over 20 µM; for `COc1nc2[nH]c(C(F)(F)F)nc2nc1Nc1cc(C(F)(F)F)ccc1F` [Compound 2-3, 6-methoxy-N-(2-fluoro-5-(trifluoromethyl)phenyl)-2-(trifluoromethyl)-1H-imidazo[4,5-b]pyrazin-5-amine] it is over 20 µM. Consider `COc1nc2[nH]c(C(F)(F)F)nc2cc1Nc1cc(C(F)(F)F)cc(C(F)(F)F)c1` [Compound 2-72, N-(3,5-bis(trifluoromethyl)phenyl)-5-methoxy-2-(trifluoromethyl)-3H-imidazo[4,5-b]pyridin-6-amine], for which the EC50 is 5 to 20 µM.

With `CCOc1nc2[nH]c(C(F)(F)F)nc2nc1Nc1ccc(OC(F)(F)F)cc1` [Compound 2-37, 6-ethoxy-N-(4-(trifluoromethoxy)phenyl)-2-(trifluoromethyl)-1H-imidazo[4,5-b]pyrazin-5-amine], the EC50 was over 20 µM. In the case of `COc1nc2[nH]c(C(F)(F)F)nc2nc1Nc1cccc(I)c1` [Compound 2-31, 6-methoxy-N-(3-iodophenyl)-2-(trifluoromethyl)-1H-imidazo[4,5-b]pyrazin-5-amine], the EC50 was in the range of 5 to 20 µM. With `COc1nc2[nH]c(C(F)(F)F)nc2cc1Nc1cccc(F)c1F` [Compound 2-68, N-(2,3-Difluorophenyl)-5-methoxy-2-(trifluoromethyl)-3H-imidazo[4,5-b]pyridin-6-amine], the EC50 lay within 5 to 20 µM. The figure for `COc1nc2nc(C(F)(F)F)[nH]c2cc1Nc1ccc(-c2ccc(C(F)(F)F)nc2)cc1` [Compound 2-75, 5-methoxy-2-(trifluoromethyl)-N-(4-(6-(trifluoromethyl)pyridin-3-yl)phenyl)-1H-imidazo[4,5-b]pyridin-6-amine] is 5 to 20 µM; for `COc1nc2[nH]c(C(F)(F)F)nc2nc1Nc1ccc(I)cc1` [Compound 2-30, 6-methoxy-N-(4-iodophenyl)-2-(trifluoromethyl)-1H-imidazo[4,5-b]pyrazin-5-amine] it is 5 to 20 µM; for `Oc1nc2[nH]c(C(F)(F)F)nc2nc1Nc1cccc(C(F)(F)F)c1F` [Compound 2-54, 5-((2-fluoro-3-(trifluoromethyl)phenyl)amino)-2-(trifluoromethyl)-1H-imidazo[4,5-b]pyrazin-6-ol] it is over 20 µM. As for `COc1nc2[nH]c(C(F)(F)F)nc2nc1Nc1ccc(OC(F)(F)F)c(F)c1` [Compound 2-13, 6-methoxy-N-(3-fluoro-4-(trifluoromethoxy)phenyl)-2-(trifluoromethyl)-1H-imidazo[4,5-b]pyrazin-5-amine], the EC50 was 5 to 20 µM.

`COc1nc2[nH]c(C(F)(F)F)nc2nc1Nc1ccc(C(F)(F)F)cc1` [Compound 2-22, 6-methoxy-N-(4-(trifluoromethyl)phenyl)-2-(trifluoromethyl)-1H-imidazo[4,5-b]pyrazin-5-amine]: the EC50 fell in the range of 5 to 20 µM.

With `COc1nc2[nH]c(C(F)(F)F)nc2nc1Nc1ccc(C(F)(F)F)cc1F` [Compound 2-14, 6-methoxy-N-(2-fluoro-4-(trifluoromethyl)phenyl)-2-(trifluoromethyl)-1H-imidazo[4,5-b]pyrazin-5-amine], the EC50 was at most 5 µM.

As to `COc1nc2nc(C(F)(F)F)[nH]c2cc1Nc1ccccc1F` [Compound 2-61, N-(2-fluorophenyl)-5-methoxy-2-(trifluoromethyl)-1H-imidazo[4,5-b]pyridin-6-amine], the EC50 is over 20 µM. The figure for `CCCOc1nc2[nH]c(C(F)(F)F)nc2nc1Nc1ccc(OC(F)(F)F)cc1F` [Compound 2-39, 6-propoxy-N-(2-fluoro-4-(trifluoromethoxy)phenyl)-2-(trifluoromethyl)-1H-imidazo[4,5-b]pyrazin-5-amine] is 5 to 20 µM.

These data come from patent US11708376B2 (VIRGINIA TECH INTELLECTUAL PROPERTIES, INC., priority 2018, dated 2023).
